Measured values: patent US20180177749A1, “USE OF CYP EXPRESSION TO DIRECT THERAPEUTIC INTERVENTION IN CANCER” (REGENTS OF THE UNIVERSITY OF MINNESOTA, priority 2016, published 2018)
Read-outs that look alike come from different tables or passages of the source.

System: MCF-7
Test: MTT cell proliferation assay, MCF-7
Assay type: cell-based
Conditions: Homo sapiens, MCF7
Procedure: Cells were grown at 37° C. in a 5% CO2 incubator. […] MTT was then added (5 mg/ml), and after 2 h of incubation, the plates were centrifuged. The supernatant was removed; DMSO was added, and the absorbance was read at 540 nm with a BioTek 96-well plate reader.

## CCCCCCNC(=N)NC(=N)NCc1ccccc1 [HBB, N1-hexyl-N5-benzyl-biguanide]
MCF-7, ER+[PR+]HER2−, read-out: IC50
  IC50: 20.1 µM
read-out: IC50 MCF-7
  IC50: 20 µM
